Results taken from patent US9242012B2, “Methods for killing PSMA-expressing, taxane-resistant cancer cells” (PSMA Development Company, LLC, priority 2008, dated 2016).
Where a SMILES comes first, the peptide text is derived from it. [ ]: non-standard residue; d: D form. The star is where a group is joined. Dolaproine = CO[C@@H]([C@@H]1CCCN1)[C@@H](C)C(=O)O; Dil = CC[C@H](C)[C@H](NC)[C@@H](CC(=O)O)OC; X1 = C[C@@H](N*)[C@@H](O)c1ccccc1; NMeV = CN[C@H](C(=O)O)C(C)C

Tests used:
[1] = Phase 1 dose-escalation study of PSMA ADC: pharmacokinetics (ELISA, LC/MS/MS); type: in vivo, human
Description: An open-label, dose-escalation phase 1 study of PSMA ADC (comprising MMAE) in patients with taxane refractory metastatic prostate cancer (metCRPC) was initiated. The objectives of the study were to (1) determine a maximum tolerated dose (MTD) for PSMA ADC administered once every 3 weeks; (2) assess the safety, tolerability, pharmacokinetics (PK) and pharmacodynamics (PD) of PSMA ADC across the dose-escalation range; (3) assess immunogenicity; and (4) assess antitumor activity. PSMA ADC in saline was administered by IV infusion Q3 W for up to 4 cycles. Subjects received either 0.4 mg/kg, 0.7 mg/kg, 1.1 mg/kg, or 1.8 mg/kg or will receive 2.0 mg/kg (at weeks 1, 4, 7 and 10).
Adverse events, PK, PSA, circulating tumor cells, clinical disease progression and immunogenic response to PSMA ADC continued to be assessed (FIGS. 19-21). Serum concentrations of PSMA ADC and total antibody were measured by an enzyme-linked immunosorbent assay (ELISA) method, and free MMAE was measured by liquid chromatography/mass spectrometry/mass spectrometry (LC/MS/MS) method. Individual patients report bone pain reduction as described below.

C4-2 cells [2] = experiment: Single C4-2 xenograft mouse given docetaxel, then switched to PSMA ADC after relapse; type: in vivo, nude mouse
Procedure: The in vivo therapeutic efficacy of PSMA ADC in a subcutaneous xenograft model of human prostate cancer was assessed. […] C4-2 is an androgen-independent human prostate cancer cell line. At day 11, the tumor size of each mouse was measured, by length and width in millimeters, using a caliper (Mitutoyo, Aurora, Ill.). The tumor volume was calculated using the following formula: Volume(mm^3)=[(Length)×(Width)^2]/2
It was given 12 doses of docetaxel, IP, at 12 mg/kg weekly. As shown in FIG. 3 and Table 2, the animal initially responded to the docetaxel treatment, the tumor volume was reduced to ˜300 mm^3 at day 60, but then it progressed to ˜800 mm^3 at day 100. The treatment of docetaxel was stopped, and PSMA ADC was given IV at 6 mg/kg for an additional 12 doses, weekly. […] PSMA ADC can treat tumors that fail docetaxel treatment.

[3] = tested on: hormone-refractory prostate cancer; conditions: cited from earlier work
C4-2 cells [4] = experiment: C4-2 xenograft, PSMA ADC after docetaxel treatment failure (Example 3); type: in vivo, athymic nude mice
Procedure: An experiment (FIG. 10) was designed to evaluate PSMA ADC effectiveness after docetaxel treatment failure. […] At day 14, animals having a tumor volume between 100-200 mm^3 were randomized (randomization #1) into two treatment arms: (1) vehicle control (PBS buffer, n=10); (2) docetaxel at 2 mg/kg/IV weekly (n=50) according to tumor volume. The mean tumor volume was 138.0 and 138.1 mm^3 for the vehicle control and docetaxel treatment groups, respectively, at randomization.
All animals then received intravenous injections of PBS or docetaxel (Sigma, St. Louis, Mo.) at 2 mg/kg via tail vein in a volume of 0.1 mL. Tumor sizes were measured twice per week after tumor implantation, and the average tumor volume for the two groups before the second randomization was initiated were plotted (FIG. 11).
Animals were randomized into these two treatment subgroups continuously over the period of 28 days to 70 days post tumor implantation. By the end of day 70, there were 28 mice whose tumor volume had exceeded 400 mm^3, with 14 mice randomized into the PSMA ADC treatment subgroup (mean tumor volume of 695 mm^3 and 14 mice randomized into the continued docetaxel treatment subgroup (mean tumor volume of 642 mm^3 with a p-value of 0.28 (student t-test)).
The effect of PSMA ADC treatment on tumor growth after docetaxel failure was assessed by comparing tumor reduction after the second randomization. […]

C4-2 cells [5] = tested on: C4-2 cells
Procedure: Male athymic nude mice, 6-8 weeks old, obtained from Charles River Laboratories, Inc., were implanted with Matrigel subcutaneously into the right flank of each mouse with 5 million C4-2 cells (androgen-independent human prostate cancer cell line). At day 14, tumor size was measured by length and width in mm (millimeter). The volume was calculated using the formula: volume (mm^3)=[(length)×(width)^2]/2. […] Animals were dosed weekly through the tail vein.
When the tumor volume of an animal in the docetaxel treatment group exceeded 400 mm^3, this animal was randomized, at a 1:1 ratio, into one of the two treatment subgroups: one group continued to receive docetaxel at 2 mg/kg weekly (n=18), and the second group was switched to PSMA ADC treatment at 6 mg/kg/IV weekly (n=18). Mice whose tumors durably responded to docetaxel (≦400 mm^3) continued to receive docetaxel at 2 mg/kg/IV weekly. Treatment effects were assessed by measuring tumor volume and overall survival. Animal body weight was also measured. Animals with tumor size ≧2000 mm^3 were sacrificed.

SMILES	exposure to free MMAE versus dose ([1]; after IV PSMA ADC 0.4-1.8 mg/kg)	exposure to free MMAE relative to PSMA ADC ([1]; after IV PSMA ADC, serum, LC/MS/MS) [%]	tumor volume (C4-2 cells [2]; day 60, docetaxel IP 12 mg/kg weekly, start ~500 mm^3 at day 21) [mm^3]	tumor volume (C4-2 cells [2]; day 100, progressed on docetaxel IP 12 mg/kg weekly) [mm^3]	increase in survival ([3]; docetaxel (Taxotere) in combination with prednisone, advanced prostate cancer)	survival benefit ([3]; docetaxel in combination with prednisone) [month]	tumor volume course after second randomization (docetaxel failure, >400 mm^3) (C4-2 cells [4]; PSMA ADC 6 mg/kg IV weekly or continued docetaxel 2 mg/kg)	tumor growth compared to vehicle control (C4-2 cells [4]; docetaxel 2 mg/kg IV weekly, n=50, before second randomization, by day 21 p=0.025)	tumor size of individual animals after second randomization (C4-2 cells [5]; PSMA ADC (panel A) or continued docetaxel (panel B))	average body weight change post second randomization (C4-2 cells [5]; PSMA ADC versus continued docetaxel, p<0.001)	median survival post second randomization (C4-2 cells [5]; continued docetaxel 2 mg/kg weekly, n=18) [days]	animals sacrificed due to large tumors (>2,000 mm^3) (C4-2 cells [5]; continued docetaxel treatment group, day 157 post second randomization)
CC[C@H](C)[C@@H]([C@@H](CC(=O)N1CCC[C@H]1[C@H](OC)[C@@H](C)C(=O)N[C@H](C)[C@@H](O)c1ccccc1)OC)N(C)C(=O)[C@@H](NC(=O)[C@@H](NC)C(C)C)C(C)C [MMAE, monomethylauristatin norephedrine] (H-[NMeV]V[Dil][Dolaproine]-X1)	dose proportional	< 0.1										
CC(=O)O[C@@]12CO[C@@H]1C[C@H](O)[C@@]1(C)C(=O)[C@H](O)C3=C(C)[C@@H](OC(=O)[C@H](O)[C@@H](NC(=O)OC(C)(C)C)c4ccccc4)C[C@@](O)([C@@H](OC(=O)c4ccccc4)[C@H]21)C3(C)C [docetaxel]			~300	~800	2-3 months	2.4	grew continuously	reduced tumor growth compared to control	tumors continued to progress except in one animal	lost weight	45	16 of 18
